# Tested on: HeLa cells
# Test: Cytotoxicity test (MTT) with and without near infrared irradiation
# Assay type: cell-based
# Procedure: Cytotoxicity test was conducted on the nano-microsphere according to the present invention prepared from Example 1. HeLa cells as cancer cells were incubated in the RPMI 1640 culture medium containing 10% FBS and 1% penicillin in the presence of 5% CO2 at a temperature of 37° C. Then, for the cytotoxicity test, the incubated HeLa cells were dispensed on a 96-well plate at a cell number of 1×10^4 and then incubated for 24 hours. Next day, the nano-microspheres (nano-microspheres added with 1.25 mg of a photosensitizer) according to the present invention were diluted by concentrations, respectively, and then the diluted concentrations were put into each well at 100 μl.
# After that, the cells were further incubated for 12 hours so that the nano-microspheres can act on the cells, and then near infrared wavelength light (670 nm) was irradiated at an amount of 1.2 J/cm^2. […]
# Lastly, 20 μl of MTT reagent (3-(4,5-dimethylthiazol-2yl)-2,5-diphenyl-2H-tetrazolium bromide) was added to the cells after incubation was completed, followed by again incubating for 3˜4 hours. […] After that, the ELIZA analyzer was used to measure absorbance at 595 nm and thus comparison of the amount of formazan formed was conducted, to thereby confirm cell viability (%) and cytotoxicity of the conjugate (FIGS. 15 and 16).
structure (smiles),measurement,setting,value
CCCC(C)(C)c1cc(Oc2ccc3c(c2)/C2=N/c4c5ccc(Oc6cc(C(C)(C)CCC)c(OC)cc6C(C)(C)CCC)cc5c5[n]4[Zn][n]4/c(c6ccc(Oc7cc(C(C)(C)CCC)c(OC)cc7C(C)(C)CCC)cc6/c4=N/C3=N2)=N\C2=NC(=N\5)/c3ccc(Oc4ccc(C(=O)O)cc4)cc32)c(C(C)(C)CCC)cc1OC [Zn-Pc-COOH],apoptosis / cell viability (%),"near infrared ray (670 nm, 1.2 J/cm^2) irradiated",apoptosis occurred in proportional to the time for irradiation
same,apoptosis / cell viability (%),near infrared ray not irradiated,apoptosis did not occur
